Reference: patent US20230172950A1 (priority 2020, published 2023)

Assays:
[1] = in vivo; cited from earlier work
[2] = test system: Splenocytes; test: Ex vivo splenocyte incubation (Study 24), viability by flow cytometry; assay type: cell-based; conditions: concentrations between 100 uM up to 500 uM
Method: (§1) The profound in vivo activity that we observe in naïve mice and in cancer models must be mediated through the mobilized supercharged Natural Killer T cells, T cells and dendritic cells after AVM0703 HED 6 mg/kg and higher.
Splenocytes were cultured for 16 hours prior to assay execution.

[3] = test system: Whole Blood; test: Ex vivo whole blood incubation (Study 6), immune cell counts; assay type: cell-based; conditions: concentrations between 100 uM up to 500 uM
Method: as §1

[4] = test system: lymphocytes, monocytes, NKT cells, T cells, dendritic cells; conditions: in vivo, HED of 18 mg/kg and higher

Row | SMILES | biologic half-life [1] | response of isolated splenocytes [2] | response of ex vivo whole blood [3] | effects on colon, pancreas or bone [4]
1 | C[C@]12C=CC(=O)C=C1CC[C@@H]1[C@@H]2C(=O)C[C@@]2(C)[C@H]1CC[C@]2(O)C(=O)CO [prednisone] | about 20 hours |  |  | 
2 | C[C@@H]1C[C@H]2[C@@H]3CCC4=CC(=O)C=C[C@]4(C)[C@@]3(F)[C@@H](O)C[C@]2(C)[C@@]1(O)C(=O)CO [dexamethasone base, dexamethasone] |  | no response | no response | no effects
